Assay results from patent US8962859B2, “Spiro-amino-imidazo-fused heterocyclic compounds as beta-secretase modulators and methods of use” (Amgen Inc., priority 2011, dated 2015).
pIC50: −log10 of the molar value.

Key:
[1] = molecular target: BACE 1 (Homo sapiens (Human), UniProt P56817); assay: In vitro enzymatic BACE FRET assay; format: biochemical; settings: average IC50; acetate buffer pH 4.2, enzyme 0.2 nM, FRET substrate 50 nM
Method: In Vitro Enzymatic BACE FRET (Fluorescence Resonance Energy Transfer) Assay (Enzyme Assay Data in the Example Table I)
The assay buffer used in this screen is 0.05 M acetate, pH 4.2, 10% DMSO final, 100 uM genapol (which is a nonionic detergent, below its Critical Micelle Concentration). The Beta Secretase enzyme (0.2 nM) is pre-incubated for one hour with inhibitors, typically in about 1 uL of DMSO according to a serial dilution, are added thereto. This assay is effectively started by the addition of FRET substrate (50 nM) and the combination is incubated for one hour. The FRET assay is terminated with by addition of Tris buffer, which raises the pH to neutrality, and the fluorescence is determined. The FRET substrate is a peptide with commercially available fluorophore and quencher, on opposite sides of the BACE cleavage site. Proteolytic cleavage of the FRET substrate releases quenching of fluorescence (excitation 488 nm and […]).

[2] = system: Aβ 40 levels in cells stably expressing Amyloid Precursor Protein (APP); assay: In vitro BACE cell-based assay (HEK cell assay), Aβ40 sandwich ELISA; settings: average IC50, inhibition of Aβ40 in conditioned medium after 24 h
Method: The cell-based assay measures inhibition or reduction of Aβ40 in conditioned medium of test compound treated cells expressing amyloid precursor protein.
Cells stably expressing Amyloid Precursor Protein (APP) were plated at a density of 40K cells/well in 96 well plates (Costar). The cells were cultivated for 24 hours at 37° C. and 5% CO2 in DMEM supplemented with 10% FBS. The test compounds were then added to cells in 10-point dose response concentrations with the starting concentration being either 100 μM or 10 μM. The compounds were diluted from stock solutions in DMSO and the final DMSO concentration of the test compounds on cells was 0.1%. After 24 h of incubation with the test compounds the supernatant conditioned media was collected and the Aβ 40 levels were determined using a sandwich ELISA. The IC50 of the compound was calculated from the percent of control or percent inhibition of Aβ 40 as a function of the concentration of the test compound.
The sandwich ELISA to detect Aβ 40 was performed in 96 well microtiter plates, which were pre-treated with goat anti-rabbit IgG (Pierce). The capture and detecting antibody pair that were used to detect Aβ 40 from cell supernatants were affinity purified pAb40 (Biosource) and biotinylated 6E10 (Signet Labs Inc.), respectively.
Cellular supernatants were incubated with the capture antibody for 3 h at 4° C., followed by 3 wash steps in TBS-tween (0.05%). The detecting antibody incubation was for 2 h at 4° C., again followed by the wash steps as described previously. The final readout of the ELISA is Time-Resolved Fluorescence (counts per minute) using Delfia reagents Streptavidin-Europium and Enhancement solutions (Perkin Elmer) and the Victor 2 multilabel counter (Perkin Elmer).

[3] = system: gamma-secretase; settings: cited from earlier work

Chain of BACE 1 (P56817 46-501): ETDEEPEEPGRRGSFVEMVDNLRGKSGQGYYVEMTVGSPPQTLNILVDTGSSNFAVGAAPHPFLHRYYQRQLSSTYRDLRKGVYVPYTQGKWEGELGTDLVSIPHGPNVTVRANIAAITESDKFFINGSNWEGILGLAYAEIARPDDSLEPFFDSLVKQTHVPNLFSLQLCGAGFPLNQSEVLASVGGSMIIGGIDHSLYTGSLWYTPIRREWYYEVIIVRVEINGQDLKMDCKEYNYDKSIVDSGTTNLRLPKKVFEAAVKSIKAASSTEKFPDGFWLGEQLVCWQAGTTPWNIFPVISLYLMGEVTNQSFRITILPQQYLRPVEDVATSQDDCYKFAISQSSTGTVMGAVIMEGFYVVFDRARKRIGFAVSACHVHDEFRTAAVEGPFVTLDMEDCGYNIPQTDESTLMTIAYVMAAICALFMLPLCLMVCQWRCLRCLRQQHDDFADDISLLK

Molecule	pIC50 [1]	pIC50 ([2]; Homo sapiens, HEK293)	pIC50 [2]	notch selectivity (amyloid-beta precursor protein selective) [3]
Cc1ccc(-c2cc(F)c3c(c2)[C@]2(N=C(N)n4ccnc42)c2cc(-c4cccnc4F)ccc2O3)cc1 [Example 14, (7R)-4′-fluoro-7′-(2-fluoro-3-pyridinyl)-2′-(4-methylphenyl)spiro[imidazo[1,5-a]imidazole-7,9′-xanthen]-5-amine]	6.94	5.38	–	–
(7R)-2′-(3,6-dihydro-2H-pyran-4-yl)-4′-fluoro-7′-(2-fluoro-3-pyridinyl)spiro[imidazo[1,5-a]imidazole-7,9′-xanthen]-5-amine, (7S)-2′-(3,6-dihydro-2H-pyran-4-yl)-4′-fluoro-7′-(2-fluoro-3-pyridinyl)spiro[imidazo[1,5-a]imidazole-7,9′-xanthen]-5-amine [Example 16]	9.22	–	7.41	–
NC(=O)[C@@H](CCC(F)(F)F)N(Cc1ccc(-c2ncon2)cc1F)S(=O)(=O)c1ccc(Cl)cc1 [BMS-708163]	–	–	–	193 ×
NC1=N[C@]2(c3cc(-c4cccnc4F)ccc3Oc3c(F)cc(N4CCOCC4)cc32)c2nccn21 [Example 9A, (7S)-4′-fluoro-7′-(2-fluoro-3-pyridinyl)-2′-(4-morpholinyl)spiro[imidazo[1,5-a]imidazole-7,9′-xanthen]-5-amine]	6.72	5.40	–	–
NC1=N[C@]2(c3cc(-c4cccnc4F)ccc3Oc3c(F)cc(N4CCC(F)(F)CC4)cc32)c2nccn21 [Example 17, (7R)-2′-(4,4-difluoro-1-piperidinyl)-4′-fluoro-7′-(2-fluoro-3-pyridinyl)spiro[imidazo[1,5-a]imidazole-7,9′-xanthen]-5-amine, (7S)-2′-(4,4-difluoro-1-piperidinyl)-4′-fluoro-7′-(2-fluoro-3-pyridinyl)spiro[imidazo[1,5-a]imidazole-7,9′-xanthen]-5-amine]	9.15	–	7.29	–

Continued, in another order:

pIC50 [1]	pIC50 ([2]; Homo sapiens, HEK293)	Molecule	pIC50 [2]	notch selectivity (amyloid-beta precursor protein selective) [3]
9.15	7.51	NC1=N[C@@]2(c3cc(-c4cccnc4F)ccc3Oc3c(F)cc(N4CCOCC4)cc32)c2nccn21 [Example 9B, (7R)-4′-fluoro-7′-(2-fluoro-3-pyridinyl)-2′-(4-morpholinyl)spiro[imidazo[1,5-a]imidazole-7,9′-xanthen]-5-amine]	–	–
9.52	7.07	NC1=N[C@@]2(c3cc(-c4cccnc4F)ccc3Oc3c(F)cc(-c4ccnc(F)c4)cc32)c2nccn21 [Example 8B, (7R)-4′-fluoro-7′-(2-fluoro-3-pyridinyl)-2′-(2-fluoro-4-pyridinyl)spiro[imidazo[1,5-a]imidazole-7,9′-xanthen]-5-amine]	–	–
7.66	7.11	COc1cc(F)c2c(c1)[C@@]1(N=C(N)N3CCCN=C31)c1cc(-c3cccnc3F)ccc1O2 [Example 10, (7S)-4′-fluoro-7′-(2-fluoropyridin-3-yl)-2′-methoxy-3,4-dihydro-2H-spiro[imidazo[1,5-a]pyrimidine-8,9′-xanthen]-6-amine (7R)-4′-fluoro-7′-(2-fluoropyridin-3-yl)-2′-methoxy-3,4-dihydro-2H-spiro[imidazo[1,5-a]pyrimidine-8,9′-xanthen]-6-amine]	–	–
7.64	6.76	NC1=N[C@@]2(c3cc(-c4cccnc4F)ccc3Oc3c(F)cc(C4=CCCOC4)cc32)c2nccn21 [Example 12, (7R)-2′-(5,6-dihydro-2H-pyran-3-yl)-4′-fluoro-7′-(2-fluoro-3-pyridinyl)spiro[imidazo[1,5-a]imidazole-7,9′-xanthen]-5-amine]	–	–
9.40	7.55	Cc1ccc(-c2cc(F)c3c(c2)[C@@]2(N=C(N)n4ccnc42)c2cc(-c4cccnc4F)ccc2O3)cc1 [Example 15, (7S)-4′-fluoro-7′-(2-fluoro-3-pyridinyl)-2′-(4-methylphenyl)spiro[imidazo[1,5-a]imidazole-7,9′-xanthen]-5-amine]	–	–
8.00	6.86	NC1=N[C@]2(c3cc(-c4cccnc4F)ccc3Oc3c(F)cc(-c4ccnc(F)c4)cc32)c2nccn21 [Example 8A, (7S)-4′-fluoro-7′-(2-fluoro-3-pyridinyl)-2′-(2-fluoro-4-pyridinyl)spiro[imidazo[1,5-a]imidazole-7,9′-xanthen]-5-amine]	–	–
8.05	7.24	COc1cc(F)c2c(c1)C1(N=C(N)n3ccnc31)c1cc(-c3cccnc3F)ccc1O2 (stereo not shown) [Example 11, 4′-fluoro-7′-(2-fluoro-3-pyridinyl)-2′-methoxyspiro[imidazo[1,5-a]imidazole-7,9′-xanthen]-5-amine]	–	–
9.40	7.54	NC1=N[C@]2(c3cc(-c4cccnc4F)ccc3Oc3c(F)cc(C4=CCCOC4)cc32)c2nccn21 [Example 13, (7S)-2′-(5,6-dihydro-2H-pyran-3-yl)-4′-fluoro-7′-(2-fluoro-3-pyridinyl)spiro[imidazo[1,5-a]imidazole-7,9′-xanthen]-5-amine]	–	–
